According to PMC9743094, “Synthesis and Evaluation of Polymyxins Bearing Reductively Labile Disulfide-Linked Lipids” (Journal of Medicinal Chemistry, 2022):
Converted amounts (≈) assume the structure as drawn. Positions of bridges follow the written chain, without caps; N, C: chain ends. Non-standard residues stand in square brackets, D forms with d. Residues, ends and D or L forms follow the SMILES beside them. *: point of attachment. S(2-cyclohexylethyl) = C1CCC(CCS*)CC1; X3 = c1ccc(Oc2ccc(CS*)cc2)cc1; X5 = c1ccc(-c2ccc(CS*)cc2)cc1; S(3-Methylbutyl) = CC(C)CCS*; Dab = NCC[C@H](N)C(=O)O; X1 = CC(C)CCCCS*; X4 = CCCCCCS*

Experiments:
[1] = tested on: differentiated conditionally immortalized PTECs (ciPTECs, OAT-1); assay: ciPTEC toxicity assay (PrestoBlue); type: cell-based, human
Protocol: ciPTECs (OAT-1) cells,[52],[53] grown to 90–100% confluence, were washed by Hanks’ balanced salt solution (HBSS; Gibco, Life Technologies, Paisley, U.K.) and detached by accutase (4 mL) for 5 min at 37 °C. The cells were then suspended in fresh medium (DMEM/F-12, supplemented with 10% fetal calf serum, insulin (5 μg/mL), transferrin (5 μg/mL), selenium (5 μg/mL) hydrocortisone (35 ng/mL), Epidermal Growth Factor (10 ng/mL) and tri-iodothyronine (40 pg/mL)). Cell density was adjusted to 2.0 × 10^5 cells/mL, of which 100 μL was added to each well of a 96-well plate. The cells were incubated for 24 h at 33 °C, followed by 6 days at 37 °C, in a humidified atmosphere containing 5% (v/v) CO2. The medium was refreshed every second or third day.
Compounds were dissolved and serially diluted in serum-free medium. Differentiated cells were washed once with HBSS and serially diluted compounds (80 μL/well) were transferred to the ciPTEC-containing plate. Compounds were incubated for 24 h at 37 °C; the cells were washed by HBSS, followed by incubation with 10% PrestoBlue cell viability reagent (Thermo Scientific, Vienna, Austria) in HBSS at 37 °C in the dark. Fluorescence was recorded (excitation: 530 nm, emission: 590 nm). Raw data are corrected for PrestoBlue background fluorescence and reported relative to the no-treatment control (cells with medium only). Viability data were fitted with GraphPad Prism software (version 5.03; GraphPad Software, La Jolla, CA), by nonlinear regression with 0 as bottom constraint. Presented data are based on triplicates.
Toxicity assessment on PTECs
Table S1. TC50 values for polymyxin analogues. Toxicity assessment on proximal tubular epithelial cells
performed using PrestoBlue™ assay. TC50 values are derived after non-linear regression analysis on cell viability
correspond to data obtained from 2 different batches of cells/analyses on different days. As the value for
polymyxin B differs 2-fold, values in the manuscript are presented relative to the polymyxin B value.
Compound TC50 (µ M) Compound TC50 (µ M)
Polymyxin B 80 Polymyxin B 41
Figure S3. Representative traces of ciPTECs’ viability after incubation with analogues for 24 hours. Shown data are based on […]

[2] = tested on: A. baumannii (ATCC 19606); type: cell-based; details: ATCC 19606
Protocol: (§1) Minimum inhibitory concentrations (MICs) on relevant Gram-negative bacteria were determined by broth microdilution, in accordance with CLSI guidelines. Indicated bacteria were taken from glycerol stocks and incubated overnight on blood agar at 37 °C. Well-isolated colonies were taken, suspended in TSB (5 mL), and grown to an OD600 of 0.5. Compounds to be tested were dissolved in DMSO (6.4 mg/mL), diluted in cation-adjusted Mueller–Hinton Broth (CAMHB) (12.5 and 20 μg/mL Mg^2+ and Ca^2+, respectively), and diluted serially on polypropylene microtiter plates. To the diluted compounds (50 μL per well) was added 50 μL of relevant bacterial suspension, to yield a final concentration of 10^6 CFU/mL. Plates were covered by adhesive gas-permeable membranes and incubated at 37 °C. MIC was read out as the lowest concentration that inhibited visual bacterial growth. Shown values are consistent results from at least duplicate experiments.

[3] = tested on: K. pneumoniae (ATCC 13883); type: cell-based; details: ATCC 13883
Protocol: as §1

[4] = tested on: P. aeruginosa (ATCC 27853); type: cell-based; details: ATCC 27853
Protocol: as §1

E. coli (ATCC 25922) = type: cell-based; details: ATCC 25922
Protocol: as §1

| SMILES | MIC A. baumannii (ATCC 19606) [2] | MIC K. pneumoniae (ATCC 13883) [3] | MIC P. aeruginosa (ATCC 27853) [4] | MIC E. coli (ATCC 25922) (E. coli (ATCC 25922)) | TC50, Day 1 [1] | ciPTEC Toxicity Index (relative to polymyxin B) [1] | TC50, Day 2 [1] |
| --- | --- | --- | --- | --- | --- | --- | --- |
| CC(C)C[C@@H]1NC(=O)[C@@H](Cc2ccccc2)NC(=O)[C@H](CCN)NC(=O)[C@@H](NC(=O)[C@H](CCN)NC(=O)[C@@H](NC(=O)[C@H](N)CSSCCC2CCCCC2)[C@@H](C)O)CCNC(=O)[C@H]([C@@H](C)O)NC(=O)[C@H](CCN)NC(=O)[C@H](CCN)NC1=O [Compound 19b] (H-[dC](S(2-cyclohexylethyl))T[Dab][Dab][Dab][dF]L[Dab][Dab]T; lactam 4-C) | 1 µg/mL (≈ 0.827 µM) | 1 µg/mL (≈ 0.827 µM) | 2 µg/mL (≈ 1.65 µM) | 1 µg/mL (≈ 0.827 µM) | – | – | 51 µM |
| CCCCCCSSC[C@@H](NC(=O)CN)C(=O)N[C@H](C(=O)N[C@@H](CCN)C(=O)N[C@H]1CCNC(=O)[C@H]([C@@H](C)O)NC(=O)[C@H](CCN)NC(=O)[C@H](CCN)NC(=O)[C@H](CC(C)C)NC(=O)[C@@H](Cc2ccccc2)NC(=O)[C@H](CCN)NC1=O)[C@@H](C)O [Compound 21b] (H-G[dC](X4)T[Dab][Dab][Dab][dF]L[Dab][Dab]T; lactam 5-C) | 1 µg/mL (≈ 0.807 µM) | 1 µg/mL (≈ 0.807 µM) | 2 µg/mL (≈ 1.61 µM) | 2 µg/mL (≈ 1.61 µM) | 357 µM | 4.4 | – |
| CC(C)CCSSC[C@@H](NC(=O)CN)C(=O)N[C@H](C(=O)N[C@@H](CCN)C(=O)N[C@H]1CCNC(=O)[C@H]([C@@H](C)O)NC(=O)[C@H](CCN)NC(=O)[C@H](CCN)NC(=O)[C@H](CC(C)C)NC(=O)[C@@H](Cc2ccccc2)NC(=O)[C@H](CCN)NC1=O)[C@@H](C)O [Compound 22b] (H-G[dC](S(3-Methylbutyl))T[Dab][Dab][Dab][dF]L[Dab][Dab]T; lactam 5-C) | 1 µg/mL (≈ 0.816 µM) | 0.5 µg/mL (≈ 0.408 µM) | 1 µg/mL (≈ 0.816 µM) | 2 µg/mL (≈ 1.63 µM) | 163 µM | – | – |
| CC(C)C[C@@H]1NC(=O)[C@@H](Cc2ccccc2)NC(=O)[C@H](CCN)NC(=O)[C@@H](NC(=O)[C@H](CCN)NC(=O)[C@@H](NC(=O)[C@@H](CSSCCC2CCCCC2)NC(=O)CN)[C@@H](C)O)CCNC(=O)[C@H]([C@@H](C)O)NC(=O)[C@H](CCN)NC(=O)[C@H](CCN)NC1=O [Compound 23b] (H-G[dC](S(2-cyclohexylethyl))T[Dab][Dab][Dab][dF]L[Dab][Dab]T; lactam 5-C) | 1 µg/mL (≈ 0.79 µM) | 1 µg/mL (≈ 0.79 µM) | 1 µg/mL (≈ 0.79 µM) | 2 µg/mL (≈ 1.58 µM) | – | – | 58 µM |
| CC(C)CCCCSSC[C@@H](NC(=O)CN)C(=O)N[C@H](C(=O)N[C@@H](CCN)C(=O)N[C@H]1CCNC(=O)[C@H]([C@@H](C)O)NC(=O)[C@H](CCN)NC(=O)[C@H](CCN)NC(=O)[C@H](CC(C)C)NC(=O)[C@@H](Cc2ccccc2)NC(=O)[C@H](CCN)NC1=O)[C@@H](C)O [Compound 24b] (H-G[dC](X1)T[Dab][Dab][Dab][dF]L[Dab][Dab]T; lactam 5-C) | 1 µg/mL (≈ 0.798 µM) | 1 µg/mL (≈ 0.798 µM) | 2 µg/mL (≈ 1.6 µM) | 2 µg/mL (≈ 1.6 µM) | – | – | 63 µM |
| CC(C)C[C@@H]1NC(=O)[C@@H](Cc2ccccc2)NC(=O)[C@H](CCN)NC(=O)[C@@H](NC(=O)[C@H](CCN)NC(=O)[C@@H](N)[C@@H](C)O)CCNC(=O)[C@H]([C@@H](C)O)NC(=O)[C@H](CCN)NC(=O)[C@H](CCN)NC1=O [PMBN, polymyxin B nonapeptide, reference compound] (H-T[Dab][Dab][Dab][dF]L[Dab][Dab]T; lactam 3-C) | >32 µg/mL | >32 µg/mL | >32 µg/mL | >32 µg/mL | – | – | – |

The next lines start with results.

| MIC A. baumannii (ATCC 19606) [2] | MIC K. pneumoniae (ATCC 13883) [3] | MIC P. aeruginosa (ATCC 27853) [4] | MIC E. coli (ATCC 25922) (E. coli (ATCC 25922)) | SMILES | TC50, Day 1 [1] | ciPTEC Toxicity Index (relative to polymyxin B) [1] | TC50, Day 2 [1] |
| --- | --- | --- | --- | --- | --- | --- | --- |
| >32 µg/mL | 4 µg/mL (≈ 3.38 µM) | 2 µg/mL (≈ 1.69 µM) | 8 µg/mL (≈ 6.77 µM) | CCCCCCSSC[C@H](N)C(=O)N[C@H](C(=O)N[C@@H](CCN)C(=O)N[C@H]1CCNC(=O)[C@H]([C@@H](C)O)NC(=O)[C@H](CCN)NC(=O)[C@H](CCN)NC(=O)[C@H](CC(C)C)NC(=O)[C@@H](Cc2ccccc2)NC(=O)[C@H](CCN)NC1=O)[C@@H](C)O [Compound 17a] (H-C(X4)T[Dab][Dab][Dab][dF]L[Dab][Dab]T; lactam 4-C) | 421 µM | 5.3 | – |
| 1 µg/mL (≈ 0.846 µM) | 0.5 µg/mL (≈ 0.423 µM) | 2 µg/mL (≈ 1.69 µM) | 2 µg/mL (≈ 1.69 µM) | CCCCCCSSC[C@@H](N)C(=O)N[C@H](C(=O)N[C@@H](CCN)C(=O)N[C@H]1CCNC(=O)[C@H]([C@@H](C)O)NC(=O)[C@H](CCN)NC(=O)[C@H](CCN)NC(=O)[C@H](CC(C)C)NC(=O)[C@@H](Cc2ccccc2)NC(=O)[C@H](CCN)NC1=O)[C@@H](C)O [Compound 17b] (H-[dC](X4)T[Dab][Dab][Dab][dF]L[Dab][Dab]T; lactam 4-C) | 240 µM | 3.0 | – |
| >32 µg/mL | 8 µg/mL (≈ 6.85 µM) | 2 µg/mL (≈ 1.71 µM) | 16 µg/mL (≈ 13.7 µM) | CC(C)CCSSC[C@H](N)C(=O)N[C@H](C(=O)N[C@@H](CCN)C(=O)N[C@H]1CCNC(=O)[C@H]([C@@H](C)O)NC(=O)[C@H](CCN)NC(=O)[C@H](CCN)NC(=O)[C@H](CC(C)C)NC(=O)[C@@H](Cc2ccccc2)NC(=O)[C@H](CCN)NC1=O)[C@@H](C)O [Compound 18a] (H-C(S(3-Methylbutyl))T[Dab][Dab][Dab][dF]L[Dab][Dab]T; lactam 4-C) | 786 µM | 9.8 | – |
| 2 µg/mL (≈ 1.67 µM) | 2 µg/mL (≈ 1.67 µM) | 16 µg/mL (≈ 13.4 µM) | 4 µg/mL (≈ 3.34 µM) | CC(C)CCCCSSC[C@@H](N)C(=O)N[C@H](C(=O)N[C@@H](CCN)C(=O)N[C@H]1CCNC(=O)[C@H]([C@@H](C)O)NC(=O)[C@H](CCN)NC(=O)[C@H](CCN)NC(=O)[C@H](CC(C)C)NC(=O)[C@@H](Cc2ccccc2)NC(=O)[C@H](CCN)NC1=O)[C@@H](C)O [Compound 20b] (H-[dC](X1)T[Dab][Dab][Dab][dF]L[Dab][Dab]T; lactam 4-C) | – | 3.3 | 135 µM |
| 1 µg/mL (≈ 0.791 µM) | 1 µg/mL (≈ 0.791 µM) | 2 µg/mL (≈ 1.58 µM) | 4 µg/mL (≈ 3.16 µM) | CC(C)C[C@@H]1NC(=O)[C@@H](Cc2ccccc2)NC(=O)[C@H](CCN)NC(=O)[C@@H](NC(=O)[C@H](CCN)NC(=O)[C@@H](NC(=O)[C@H](N)CSSCc2ccc(-c3ccccc3)cc2)[C@@H](C)O)CCNC(=O)[C@H]([C@@H](C)O)NC(=O)[C@H](CCN)NC(=O)[C@H](CCN)NC1=O [Compound 36] (H-[dC](X5)T[Dab][Dab][Dab][dF]L[Dab][Dab]T; lactam 4-C) | – | 1.7 | 68 µM |
| 1 µg/mL (≈ 0.781 µM) | 1 µg/mL (≈ 0.781 µM) | 4 µg/mL (≈ 3.12 µM) | 4 µg/mL (≈ 3.12 µM) | CC(C)C[C@@H]1NC(=O)[C@@H](Cc2ccccc2)NC(=O)[C@H](CCN)NC(=O)[C@@H](NC(=O)[C@H](CCN)NC(=O)[C@@H](NC(=O)[C@H](N)CSSCc2ccc(Oc3ccccc3)cc2)[C@@H](C)O)CCNC(=O)[C@H]([C@@H](C)O)NC(=O)[C@H](CCN)NC(=O)[C@H](CCN)NC1=O [Compound 37] (H-[dC](X3)T[Dab][Dab][Dab][dF]L[Dab][Dab]T; lactam 4-C) | – | 1.8 | 72 µM |
